Source: patent US20060069132A1, “Azolecarboxamide herbicides” (priority 2004, published 2006)

Key:
giant foxtail = assay: Test C pre-/postemergence herbicide test; type: in vivo, Setaria faberi
How it was run: (§1)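 Greenhouse-grown plants were evaluated visually 12 to 14 days after treatment, with 100 meaning complete control and 0 no effect. Application was preemergence, or postemergence at 2 to 18 cm.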

corn [1] = assay: Test C pre-/postemergence herbicide test; type: in vivo, Zea mays
How it was run: as §1

cocklebur = assay: Test C pre-/postemergence herbicide test; type: in vivo, Xanthium strumarium
How it was run: as §1

velvetleaf [2] = assay: Test A pre-/postemergence herbicide test; type: in vivo, Abutilon theophrasti
How it was run: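 Plants are held in greenhouse about ten days after treatment, then compared with untreated controls and scored 0 (no effect) to 100 (complete control). Preemergence dosing is a directed soil spray on sown sandy loam; postemergence dosing is spray to runoff at 2–10 cm height.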

kochia = assay: Test C pre-/postemergence herbicide test; type: in vivo, Kochia scoparia
How it was run: as §1

corn [3] = assay: Test B pre-/postemergence herbicide test; type: in vivo, Zea mays; conditions: for Plant response rating (0 to 100 scale), Corn: 0 is no effect; for Plant response rating (0 to 100 scale), Corn / Plant response rating, Corn: preemergence; for Corn plant response rating: postemergence; for Plant response rating, Corn: 0 = no effect, 100 = complete control
How it was run: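 Evaluation is visual, comparing treated with control plants on a scale where 0 means no effect and 100 means full control. Treatments were preemergence, or postemergence on seedlings 2–18 cm tall, and held 13–15 days in the greenhouse.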

velvetleaf [4] = assay: Test C pre-/postemergence herbicide test; type: in vivo, Abutilon theophrasti
How it was run: as §1

ducksalad = assay: Test B flooded paddy test; type: in vivo, Heteranthera limosa; conditions: 1000 g ai/ha, scale 0 to 100 (0 no effect, 100 complete control)
How it was run: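 Plants grow to 1- to 4-leaf stage (2–18 cm) for postemergence spraying, or to 2-leaf stage for the paddy test. Formulated compound is applied. Greenhouse holding lasts 13–15 days. Response is scored visually relative to controls, 0 no effect to 100 complete control; a dash means no result.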

[5] = 62 g ai/ha, preemergence, scale 0 to 100
[6] = 125 g ai/ha, scale 0 (no effect) to 100 (complete control), visual, 12 to 14 days, preemergence
[7] = 250 g ai/ha, scale 0-100, preemergence
[8] = 500 g ai/ha, scale 0 to 100 (0 no effect, 100 complete control), visual, 12 to 14 days, preemergence
[9] = Preemergence, 500 g ai/ha, scale 0 to 100, 0 no effect, 100 complete control
[10] = Postemergence, 500 g ai/ha, 0 to 100 scale, 0 no effect, 100 complete control
[11] = Postemergence, 2000 g ai/ha, 0 to 100 scale, 0 no effect, 100 complete control
[12] = Preemergence, 2000 g ai/ha, visual rating, 0 to 100 scale (0 no effect, 100 complete control)
[13] = preemergence, 500 g ai/ha, visual injury, 0 to 100 scale (0 no effect, 100 complete control)
[14] = 125 g ai/ha, 100 is complete control
[15] = 125 g ai/ha, visual rating, scale 0 (no effect) to 100 (complete control)
[16] = 500 g ai/ha, scale 0 to 100, 0 is no effect, 100 is complete control
[17] = Postemergence, 500 g ai/ha, scale 0 to 100
[18] = Postemergence, 250 g ai/ha, scale 0 to 100, 0 no effect, 100 complete control
[19] = postemergence, 125 g ai/ha, scale 0 to 100
[20] = postemergence, 62 g ai/ha, scale 0 to 100
[21] = Postemergence, 500 g ai/ha, scale 0 to 100, 0 no effect, 100 complete control

CCN(CC)C(=O)c1cccc(NC(=O)c2cc(C(C)(C)C)nn2C)n1 [Compound 314]
30: Plant response rating, Velvetleaf (velvetleaf [2]; [11]) | Plant response rating, Kochia (kochia; [7])
20: Plant response rating, Foxtail, Giant (giant foxtail; [7]) | Cocklebur plant response rating (cocklebur; [9]) | Velvetleaf plant response rating (velvetleaf [2]; [10]) | Corn plant response rating (corn [3]; [16])
80: Velvetleaf plant response rating (velvetleaf [2]; [12]) | Plant response rating, Velvetleaf (velvetleaf [4]; [7])
10: Corn plant response rating (corn [3]; [15]) | Plant response rating, Corn (corn [3]; 500 g ai/ha, visual rating)
85: Plant response rating, Velvetleaf (velvetleaf [4]; [8])
0: Plant response rating, Foxtail, Giant (giant foxtail; [5]) | Plant response rating, Foxtail, Giant (giant foxtail; [6]) | Plant response rating, Corn (corn [1]; [5]) | Plant response rating, Corn (corn [1]; [6]) | Plant response rating, Corn (corn [1]; [7]) | Plant response rating, Corn (corn [1]; [8]) | Plant response rating, Cocklebur (cocklebur; [5]) | Plant response rating, Cocklebur (cocklebur; [6]) | Plant response rating, Cocklebur (cocklebur; [7]) | Plant response rating, Kochia (kochia; [5]) | Plant response rating, Kochia (kochia; [6]) | Plant response rating (0 to 100 scale), Corn (corn [3]; [14]) | Plant response rating, Velvetleaf (velvetleaf [4]; [5]) | Ducksalad plant response rating (ducksalad)
40: Velvetleaf plant response rating (velvetleaf [2]; [13])
70: Plant response rating, Foxtail, Giant (giant foxtail; [8]) | Plant response rating, Kochia (kochia; [8])

C=CCNC(=O)c1cccc(NC(=O)c2cc(C(C)(C)C)nn2C)n1 [Compound 318]
70: Ducksalad plant response rating (ducksalad)
85: Plant response rating, Kochia (kochia; [7])
20: Corn plant response rating (corn [3]; [15]) | Corn plant response rating (corn [3]; [16])
10: Plant response rating, Foxtail, Giant (giant foxtail; [6]) | Foxtail, Giant plant response rating (giant foxtail; [17]) | Plant response rating, Corn (corn [1]; [7]) | Plant response rating, Corn (corn [1]; [18]) | Plant response rating, Corn (corn [1]; [19]) | Plant response rating, Cocklebur (cocklebur; [18]) | Plant response rating, Kochia (kochia; [5]) | Plant response rating, Kochia (kochia; [19])
0: Plant response rating, Foxtail, Giant (giant foxtail; [5]) | Plant response rating, Foxtail, Giant (giant foxtail; [19]) | Plant response rating, Foxtail, Giant (giant foxtail; [20]) | Plant response rating, Corn (corn [1]; [5]) | Plant response rating, Corn (corn [1]; [6]) | Plant response rating, Corn (corn [1]; [20]) | Plant response rating, Cocklebur (cocklebur; [5]) | Plant response rating, Cocklebur (cocklebur; [6]) | Plant response rating, Cocklebur (cocklebur; [7]) | Cocklebur plant response rating (cocklebur; [9]) | Plant response rating, Cocklebur (cocklebur; [20]) | Plant response rating, Kochia (kochia; [20]) | Plant response rating (0 to 100 scale), Corn (corn [3]; [14]) | Plant response rating, Corn (corn [3]; 500 g ai/ha, visual rating) | Plant response rating, Velvetleaf (velvetleaf [4]; [20])
30: Velvetleaf plant response rating (velvetleaf [2]; [13])
5: Plant response rating, Foxtail, Giant (giant foxtail; [18]) | Plant response rating, Cocklebur (cocklebur; [19])
25: Corn plant response rating (corn [1]; [17])
35: Plant response rating, Velvetleaf (velvetleaf [4]; [19])
50: Plant response rating, Foxtail, Giant (giant foxtail; [7]) | Plant response rating, Velvetleaf (velvetleaf [2]; [11])
80: Plant response rating, Foxtail, Giant (giant foxtail; [8]) | Velvetleaf plant response rating (velvetleaf [2]; [12])
60: Plant response rating, Kochia (kochia; [6]) | Kochia plant response rating (kochia; [17]) | Plant response rating, Kochia (kochia; [18]) | Plant response rating, Velvetleaf (velvetleaf [4]; [5]) | Velvetleaf plant response rating (velvetleaf [4]; [17])
100: Cocklebur plant response rating (cocklebur; [17]) | Plant response rating, Kochia (kochia; [8]) | Plant response rating, Velvetleaf (velvetleaf [4]; [7]) | Plant response rating, Velvetleaf (velvetleaf [4]; [8])
40: Plant response rating, Corn (corn [1]; [8]) | Velvetleaf plant response rating (velvetleaf [2]; [10]) | Plant response rating, Velvetleaf (velvetleaf [4]; [18])

CCn1nc(C(C)(C)C)cc1C(=O)Nc1cc(OC(F)(F)F)ccc1F [Compound 338]
0: Plant response rating, Corn (corn [1]; [19]) | Plant response rating, Corn (corn [1]; [20]) | Plant response rating, Cocklebur (cocklebur; [19]) | Plant response rating, Cocklebur (cocklebur; [20]) | Plant response rating, Velvetleaf (velvetleaf [4]; [19]) | Plant response rating, Velvetleaf (velvetleaf [4]; [20])
10: Plant response rating, Foxtail, Giant (giant foxtail; [18]) | Plant response rating, Foxtail, Giant (giant foxtail; [21]) | Plant response rating, Corn (corn [1]; [18]) | Plant response rating, Corn (corn [1]; [21]) | Plant response rating (0 to 100 scale), Corn (corn [3]; [14]) | Corn plant response rating (corn [3]; [15]) | Plant response rating, Corn (corn [3]; 500 g ai/ha, visual rating)
60: Plant response rating, Velvetleaf (velvetleaf [2]; [11]) | Plant response rating, Kochia (kochia; [19]) | Ducksalad plant response rating (ducksalad)
80: Plant response rating, Velvetleaf (velvetleaf [4]; [21])
20: Velvetleaf plant response rating (velvetleaf [2]; [13]) | Corn plant response rating (corn [3]; [16])
50: Velvetleaf plant response rating (velvetleaf [2]; [12]) | Plant response rating, Kochia (kochia; [20])
90: Plant response rating, Kochia (kochia; [18]) | Plant response rating, Kochia (kochia; [21])
5: Plant response rating, Foxtail, Giant (giant foxtail; [19]) | Plant response rating, Foxtail, Giant (giant foxtail; [20]) | Plant response rating, Cocklebur (cocklebur; [18]) | Plant response rating, Cocklebur (cocklebur; [21])
40: Velvetleaf plant response rating (velvetleaf [2]; [10]) | Plant response rating, Velvetleaf (velvetleaf [4]; [18])
